Data as given in patent publication US12263171B2, “7-, 8-, and 10-substituted amino triazolo quinazoline derivatives as adenosine receptor antagonists, pharmaceutical compositions and their use” (Merck Sharp & Dohme LLC, priority 2018, dated 2025).

Experiments:
[1] = target: human A2a adenosine receptor (Homo sapiens (Human), UniProt P29274); experiment: A2a receptor affinity radioligand binding assay ([3H] SCH58261, membranes from HEK293 or CHO cells); settings: unstarred values: radioligand binding
human A2a adenosine receptor, sequence (P29274 whole entry): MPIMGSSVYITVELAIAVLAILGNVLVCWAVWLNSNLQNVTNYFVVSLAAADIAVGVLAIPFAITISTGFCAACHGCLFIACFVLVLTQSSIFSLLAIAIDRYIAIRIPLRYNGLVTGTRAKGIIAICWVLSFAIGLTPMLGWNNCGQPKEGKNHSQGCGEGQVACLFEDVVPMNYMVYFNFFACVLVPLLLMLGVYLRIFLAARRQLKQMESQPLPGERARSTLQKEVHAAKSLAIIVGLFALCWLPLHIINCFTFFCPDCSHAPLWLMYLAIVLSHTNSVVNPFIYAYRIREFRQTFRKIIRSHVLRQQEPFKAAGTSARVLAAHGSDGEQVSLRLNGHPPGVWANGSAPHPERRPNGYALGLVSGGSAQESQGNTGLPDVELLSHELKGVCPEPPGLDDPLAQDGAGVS
Summary of the method: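 Displacement of tritiated SCH58261 (working dilution 4 nM) from recombinant human A2a receptor membranes (HEK293 or CHO), 60 min at room temperature in Tris pH 7.4/MgCl2 buffer after 15–30 min compound preincubation. Scintillation counting after filtration; normalized percent effect fitted 4-parameter logistic for IC50.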

[2] = target: human A2b adenosine receptor (Homo sapiens (Human), UniProt P29275); experiment: A2B antagonism in cAMP cell-based assay (LANCE cAMP, HEK293 cells, 600 nM adenosine); settings: values marked *: cAMP cell-based assay
human A2b adenosine receptor, sequence (P29275 whole entry): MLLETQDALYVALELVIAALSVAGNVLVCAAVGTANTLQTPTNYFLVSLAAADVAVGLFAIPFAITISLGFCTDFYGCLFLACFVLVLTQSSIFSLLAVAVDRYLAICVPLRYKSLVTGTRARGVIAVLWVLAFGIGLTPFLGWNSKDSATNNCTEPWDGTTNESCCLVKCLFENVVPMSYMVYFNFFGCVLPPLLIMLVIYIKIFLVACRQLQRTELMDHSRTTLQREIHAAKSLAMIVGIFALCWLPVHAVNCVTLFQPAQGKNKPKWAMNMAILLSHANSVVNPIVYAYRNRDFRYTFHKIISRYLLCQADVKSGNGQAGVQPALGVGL
Protocol: Measurement of A2A and A2B Antagonism in cAMP Cell-Based Assay
All subsequent liquid additions were performed using a multichannel pipettor. […] After this time 5 μL of either 300 nM or 600 nM adenosine (Sigma Cat. No. A9251) for A2A and A2B respectively was added and incubated for 30 minutes at 37° C. and 5% CO2 in a humidified environment. At this time detection mix was prepared by combining the LANCE Eu-W8044 labeled streptavidin and. Biotin-cAMP in detection buffer according to the manufacturers protocol. […] Curve fitting of the percent effect data versus the log of compound concentration used a 4-parameter concentration response curve fitting algorithm to calculate IC50 values.

Compound | IC50 [1] [µM] | IC50 [2] [µM]
COc1cccc2c1nc(N)n1nc([C@@H]3CCCN(c4ncc(F)cn4)C3)nc21 [Example 110, (R)-2-(1-(5-fluoropyrimidin-2-yl)piperidin-3-yl)-7-methoxy-[1,2,4]triazolo[1,5-c]quinazolin-5-amine] | 0.0022 | 0.721
Cn1cc(N2CCCC(c3nc4c5cccc(Cl)c5nc(N)n4n3)C2)cn1 (single isomer, unassigned) [Example 132B] | 0.0039 | 0.205
Cn1cc(N2CCC[C@@H](c3nc4c5cccc(OC(F)F)c5nc(N)n4n3)C2)cn1 [Example 126, (R)-7-(difluoromethoxy)-2-(1-(1-methyl-1H-pyrazol-4-yl)piperidin-3-yl)-[1,2,4]triazolo[1,5-c]quinazolin-5-amine] | 0.0132 | 2.51
COc1cccc2c1nc(N)n1nc([C@@H]3CCCN(c4ccc(=O)n(CC(F)(F)F)c4)C3)nc21 [Example 97, (R)-5-(3-(5-amino-7-methoxy-[1,2,4]triazolo[1,5-c]quinazolin-2-yl)piperidin-1-yl)-1-(2,2,2-trifluoroethyl)pyridin-2(1H)-one] | 0.0044 | 0.0624
COc1ccc2c(c1)nc(N)n1nc([C@@H]3CCCN(c4cnn([C@H](C)[C@@H](C)O)c4)C3)nc21 [Example 220B, (2R,3R)-3-(4-((R)-3-(5-amino-8-methoxy-[1,2,4]triazolo[1,5-c]quinazolin-2-yl)piperidin-1-yl)-1H-pyrazol-1-yl)butan-2-ol] | 0.00139 | 0.0528
COc1cccc2c1nc(N)n1nc(C3CCC(C)N(c4cnn(CC(F)(F)F)c4)C3)nc21 (single isomer, unassigned) [Example 142B, 7-methoxy-2-((3R,6R or 3S,6S)-6-methyl-1-(1-(2,2,2-trifluoroethyl)-1H-pyrazol-4-yl)piperidin-3-yl)-[1,2,4]triazolo[1,5-c]quinazolin-5-amine] | 0.0008 | 1.15
COc1cccc2c1nc(N)n1nc(C3CCC(C)N(c4cnn(CC(F)(F)F)c4)C3)nc21 (single isomer, unassigned) [Example 142D] | 0.0009 | 0.0093
COc1cccc2c1nc(N)n1nc(C3CN(c4cnn(CC(F)(F)F)c4)CC(F)(F)C3)nc21 (single isomer, unassigned) [Example 155B] | 0.0007 | 0.301
COc1cccc2c1nc(N)n1nc([C@@H]3CCCN(c4cncc(F)c4)C3)nc21 [Example 113, (R)-2-(1-(5-fluoropyridin-3-yl)piperidin-3-yl)-7-methoxy-[1,2,4]triazolo[1,5-c]quinazolin-5-amine] | 0.0006 | 0.209
Nc1nc2c(OC(F)F)cccc2c2nc([C@@H]3CCCN(c4cnn(C5CC5)c4)C3)nn12 [Example 125, (R)-2-(1-(1-cyclopropyl-1H-pyrazol-4-yl)piperidin-3-yl)-7-(difluoromethoxy)-[1,2,4]triazolo[1,5-c]quinazolin-5-amine] | 0.0077 | 1.28
COc1cccc2c1nc(N)n1nc(C3CN(c4cnn(CC(F)(F)F)c4)CC(F)(F)C3)nc21 (single isomer, unassigned) [Example 155A] | 0.0121 | 1.33
COc1ccc2c(c1)nc(N)n1nc([C@@H]3C[C@H](C)CN(c4cn([C@H](C)[C@@H](C)O)nc4C)C3)nc21 [Example 219B, (2R,3R)-3-(4-((3R,5S)-3-(5-amino-8-methoxy-[1,2,4]triazolo[1,5-c]quinazolin-2-yl)-5-methylpiperidin-1-yl)-3-methyl-1H-pyrazol-1-yl)butan-2-ol] | 0.0002 | 0.999
COc1cccc2c1nc(N)n1nc(C3CCC(C)N(c4cnn(CC(F)(F)F)c4)C3)nc21 (single isomer, unassigned) [Example 142A, 7-methoxy-2-((3S,6S or 3R,6R)-6-methyl-1-(1-(2,2,2-trifluoroethyl)-1H-pyrazol-4-yl)piperidin-3-yl)-[1,2,4]triazolo[1,5-c]quinazolin-5-amine] | 0.0538 | 0.985
COc1cccc2c1nc(N)n1nc([C@@H]3CCCN(c4cnn(CC(C)(C)OC)c4)C3)nc21 [Example 22, (R)-7-methoxy-2-(1-(1-(2-methoxy-2-methylpropyl)-1H-pyrazol-4-yl)piperidin-3-yl)-[1,2,4]triazolo[1,5-c]quinazolin-5-amine] | 0.0016 | 0.102
COc1cccc2c1nc(N)n1nc([C@@H]3CCCN(c4cnn(CS(C)(=O)=O)c4)C3)nc21 [Example 123, (R)-7-methoxy-2-(1-(1-((methylsulfonyl)methyl)-1H-pyrazol-4-yl)piperidin-3-yl)-[1,2,4]triazolo[1,5-c]quinazolin-5-amine] | 0.0008 | 0.0131
COc1cccc2c1nc(N)n1nc([C@@H]3CCCN(c4cnn(CC5CCC5)c4)C3)nc21 [Example 8, (R)-2-(1-(1-(cyclobutylmethyl)-1H-pyrazol-4-yl)piperidin-3-yl)-7-methoxy-[1,2,4]triazolo[1,5-c]quinazolin-5-amine] | 0.0014 | 0.211
COc1ccc2c(c1)nc(N)n1nc([C@@H]3CCCN(c4cnn(C)c4)C3)nc21 [Example 177, (R)-8-methoxy-2-(1-(1-methyl-1H-pyrazol-4-yl)piperidin-3-yl)-[1,2,4]triazolo[1,5-c]quinazolin-5-amine] | 0.0047 | 0.133
COc1cccc2c1nc(N)n1nc([C@@H]3CCCN(c4cnn(C(F)F)c4)C3)nc21 [Example 3, (R)-2-(1-(1-(difluoromethyl)-1H-pyrazol-4-yl)piperidin-3-yl)-7-methoxy-[1,2,4]triazolo[1,5-c]quinazolin-5-amine] | 0.0013 | 0.0426
CCn1cc(N2CCC[C@@H](c3nc4c5cccc(OC)c5nc(N)n4n3)C2)cn1 [Example 4, (R)-2-(1-(1-ethyl-1H-pyrazol-4-yl)piperidin-3-yl)-7-methoxy-[1,2,4]triazolo[1,5-c]quinazolin-5-amine] | 0.0014 | 0.0495
COc1cccc2c1nc(N)n1nc(C3CCC(C)N(c4cnn(CC5(O)CCC5)c4)C3)nc21 (single isomer, unassigned) [Example 144D] | 0.0012 | 0.004
Cn1cc(N2CCCC(c3nc4c5cccc(F)c5nc(N)n4n3)C2)cn1 (single isomer, unassigned) [Example 131A, (R or S)-7-fluoro-2-(1-(1-methyl-1H-pyrazol-4-yl)piperidin-3-yl)-[1,2,4]triazolo[1,5-c]quinazolin-5-amine] | 0.034 | 1.68
COc1cccc2c1nc(N)n1nc([C@@H]3CCCN(c4cnn(C(C)(C)C(=O)O)c4)C3)nc21 [Example 28, (R)-2-(4-(3-(5-amino-7-methoxy-[1,2,4]triazolo[1,5-c]quinazolin-2-yl)piperidin-1-yl)-1H-pyrazol-1-yl)-2-methylpropanoic acid] | 0.0063 | 0.0483
COc1cccc2c1nc(N)n1nc(C3CN(c4cnn(CC(C)(C)O)c4)CC(F)(F)C3)nc21 (single isomer, unassigned) [Example 156B, (R or S)-1-(4-(5-(5-amino-7-methoxy-[1,2,4]triazolo[1,5-c]quinazolin-2-yl)-3,3-difluoropiperidin-1-yl)-1H-pyrazol-1-yl)-2-methylpropan-2-ol] | 0.0022 | 1.39
